# According to patent publication US20250295686A1, “COMBINATION DECITABINE AND MPS1 INHIBITOR THERAPY TO PRIME CANCER IMMUNOGENICITY” (Dana-Farber Cancer Institute, Inc., priority 2021, published 2025):
# Entries after “also recorded” stand apart in the source; their conditions may differ.
# Columns and labels:
# H1944 cells [1] = test: Cell viability assay to determine an IC50 (CellTiter-Glo); assay type: cell-based, human
# From the text: Due to their particular hypersensitivity, H1944 cells were utilized as a model system in which to conduct an unbiased screen of cytotoxic chemotherapies or targeted DNA-damaging agents for their ability to upregulate endogenous 2′3′-cGAMP production following pulse treatment, including cGAS-deficient H2122 cells as a counter-screen (FIGS. 3A and 3B). […] Additionally, hydroxyurea or nocodazole were included as controls to induce S-phase or M-phase cell cycle arrest. The IC50 was identified for each compound for cell viability in H1944 cells, and this concentration was utilized for the screen (FIG. 4A and Table 1). It was shown that each agent induced cellular cytotoxicity and/or DNA-damage response at this concentration, as measured by the induction of propidium iodide positive cells, cleaved PARP fragments, or histone TH2A.X expression (FIGS. 4B and 4C).
# 3000 cells were plated onto 96-well plates, and then cultured for 72 hours in the presence of each DNA-damaging agent at the indicated concentration. Values of CellTiter-Glo Luminescent Cell Viability assay (Promega) […] were normalized to vehicle treated cells. Plates were read on a Tecan Infinite M200 Pro plate reader and analysis was performed using Prism7 (GraphPad Software). All conditions were tested in triplicate.
# STING pathway [2] = test: Immunoblot of STING downstream signaling in H1944 cells treated with MPS1 inhibitors; assay type: cell-based, human; conditions: 100 nM BAY-1217389, 250 nM CC-671, compared with 200 nM CFI-402257
# Description: It was also shown that MPS1 inhibitor-induced cellular cytotoxicity was dependent upon intact STING and STAT1 (FIG. 3K).
# On the other hand, reconstitution of STING in STING^absent KL cells such as A549 and H23 cells also sensitized them to MPS1 inhibition, leading to CXCL10 secretion and STAT1 activation (FIGS. 3J, 4H). It was determined that MPS1 inhibitor-induced cellular cytotoxicity and growth arrest in KL cells required activation of STING signaling following 48-hour pulse treatment, and to a lesser degree during continuous 96 hour SAC inhibition, which is also capable of arresting KP cells (FIGS. 3K, 4I-4K). […] Phosphorylation of TBK1 and IFN-β secretion, which are upstream of IFNAR1, were also attenuated by IFNAR1 depletion (FIGS. 3L, 4M, and 4N).
# (§1) Cells were lysed in RIPA buffer containing 1× protease inhibitors (Roche, Cat #11-836-145-001) and phosphatase inhibitors (50 mmol/L NaF and 100 mmol/L Na3VO4). […] Imaging of blots and quantitation of bands was performed using the LICOR Odyssey system, or LAS-3000 (Fujifilm).
# H1944 cells [3] = test: Cell cycle analysis through propidium iodide staining; assay type: cell-based, human; conditions: 48 hours, 200 nM CFI-402257, 2.5 μM cisplatin, 5 μM etoposide, 500 nM pemetrexed, 50 μM hydroxyurea
# From the text: For cell cycle analysis, cells were stained by BD CycleTEST™ Plus DNA according to the manufacturer's instructions, and then analyzed by FACSCanto 11 (BD Biosciences). For cell viability analysis, cells were stained by propidium iodide (PI) according to the manufacturer's instructions of Annexin V using Alexa Fluor 488 Annexin V dead cell apoptosis kit (Thermo Fisher Scientific, Cat. #V13245) and then analyzed by FACSCanto 11 (BD Biosciences).
# 393P-KL cells = test: Efficacy studies in 393P-KL syngeneic model (129S2/SvPasCrl mice); assay type: in vivo, mouse; conditions: after 12 weeks; decitabine day 1-7 and/or BAY-1217389 day 8, 9, 21, 22; durable response = tumor volume less than 250 mm^3 for at least 50 days after treatment
# Description: To test this, an efficacy study was performed utilizing the same short-term pulse regimen of the sequential therapy with DAC/MPS1i in 393P-KL syngeneic model. […] Additionally, to further assess the role of an intact immune system, immune-deficient NSG mice were used.
# KL NSCLC cell lines = test: CXCL10 ELISA after exogenous CDN exposure, KL NSCLC cell lines; assay type: cell-based, human; conditions: 24 hours
# From the text: Treatment with 2′3′-cGAMP or ADU-S100 was utilized to examine the sensitivity of KP or KL NSCLC cell lines to exogenous CDN exposure. […] KL cell response to extracellular CDNs was still modest as compared with endothelial cells (HUVEC) or monocytic THP-1 cells, which also have different membrane permeabilities (FIG. 2C) (Cordova et al., 2021; Luteijn et al., 2019; Ritchie et al., 2019).
# (§2) Human IFN-β (Thermo Fisher Scientific, Cat. #414101), human CXCL10 (R&D systems, Cat. #DIP100), mouse CXCL10 (R&D systems, Cat. #DY466), and 2′3′-cGAMP (Cayman Chemical, Cat. #501700) ELISAs were performed according to the manufacturer's instructions. Conditioned media from each cell lines was collected after 24 hour culture. Values represent the average of four replicates from at least two independent experiments (biological replicates).
# STING pathway [4] = test: Pre-treatment with epigenetic inhibitor followed by pulse MPS1i in STING^Low KL cells (ELISA, immunoblot, immunofluorescence); assay type: cell-based, human
# From the text: However, since KL cells epigenetically silence STING, unleashing STING expression might robustly sensitize them to MPS1 inhibition, including cell lines with baseline STING absence. Pre-treatment with the EZH2 inhibitor GSK126, which is able to de-repress STING in STING^Low KL cells lines, H1944, and H1355 cells, was explored (Kitajima et al., 2019) (FIGS. 8B and 8C).
# as §2, §1
# After being grown on chamber slides (CellTreat, Cat #229168) and subjected to various treatment conditions, cells were fixed and permeabilized according to standard protocols. […] Slides were imaged with the Nikon Eclipse 80i microscope, and colocalization was determined using CoLoc2 in ImageJ.
# [5] = Homo sapiens, NCI-H1944, 72 hours with drug
IC50 (H1944 cells [1]; [5]) [nM],SMILES,other results
254,Cc1cc(-c2cnn3c(NC[C@H]4C[C@@](C)(O)C4)cc(Oc4cccnc4)nc23)ccc1C(=O)NC1CC1 [CFI-402257],–
3920,O=C(O)[C@]1(Cc2cccc(Nc3nccs3)n2)CC[C@@H](Oc2cccc(Cl)c2F)CC1 [MK5108],–
68.5,C=CCn1c(=O)c2cnc(Nc3ccc(N4CCN(C)CC4)cc3)nc2n1-c1cccc(C(C)(C)O)n1 [MK1775],–

# Continued, compound first:
SMILES,IC50 (H1944 cells [1]; [5]) [nM],other results
CC[C@@H]1C(=O)N(C)c2cnc(Nc3ccc(C(=O)N[C@H]4CC[C@H](N5CCN(CC6CC6)CC5)CC4)cc3OC)nc2N1C(C)C [volasertib],8.46,–
CNC(=O)c1ccc(Nc2nc(OC3CCCC3)c3c(-c4ccc5nc(C)oc5c4)c[nH]c3n2)c(OC)c1 [CC-671],–,"STING downstream signaling, cGAS-dependent (immunoblot) (STING pathway [2]): upregulated to the same extent; also recorded: induced similar cGAS dependent activation of STING signaling"
NC(=O)NO [hydroxyurea],34600,cell cycle status (H1944 cells [3]): induced S-phase arrest
Nc1nc2[nH]cc(CCc3ccc(C(=O)N[C@@H](CCC(=O)O)C(=O)O)cc3)c2c(=O)[nH]1 [pemetrexed],612,cell cycle status (H1944 cells [3]): induced S-phase arrest
CN(Cc1cnc2nc(N)nc(N)c2n1)c1ccc(C(=O)N[C@@H](CCC(=O)O)C(=O)O)cc1 [methotrexate],160,–
COc1ccc(Oc2cc(NCCC(F)(F)F)c3ncc(-c4ccc(C(=O)NC5CC5)c(C)c4)n3n2)c(F)c1F [BAY-1217389],–,"STING downstream signaling, cGAS-dependent (immunoblot) (STING pathway [2]): upregulated to the same extent; also recorded: induced similar cGAS dependent activation of STING signaling; durable, long-term response (393P-KL cells): 0 mice"
"Nc1nc2c(ncn2[C@@H]2O[C@@H]3COP(=O)(O)O[C@H]4[C@@H](O)[C@H](n5cnc6c(N)ncnc65)O[C@@H]4COP(=O)(O)O[C@@H]2[C@@H]3O)c(=O)[nH]1 [2′3′-cGAMP, 2′3′-cyclic GMP-AMP]",–,"CXCL10 secretion, STING^Absent KL cell lines (KL NSCLC cell lines; A549, H23, A427, up to 100 μM): failed to respond; CXCL10 secretion, STING^Low KL cells (KL NSCLC cell lines; H1944, H2122, H647, H1355, 3.125-100 μM): dose-dependent manner"
CC[C@H](C)n1cc(C)c2c(C(=O)NCc3c(C)cc(C)[nH]c3=O)cc(-c3ccc(N4CCNCC4)nc3)cc21 [GSK126],–,"STING levels (STING pathway [4]; H1944 cells, 5 μM GSK126 combination with 200 nM CFI-402257): upregulated STING levels; CXCL10 and IFN-β secretion induced by pulse MPS1i treatment after pre-treatment (STING pathway [4]; H1944 or H1355 cells, 5 μM GSK126 pre-treatment, then 200 nM CFI-402257 or 100 nM BAY-1217389): markedly enhanced"
CCN(CCCOc1ccc2c(Nc3cc(CC(=O)Nc4cccc(F)c4)n[nH]3)ncnc2c1)CCOP(=O)(O)O [barasertib],160,–
COc1cccc(OCCCN)c1-c1cc(Nc2cnc(C#N)cn2)n[nH]1 [prexasertib],11.3,–
N.N.[Cl][Pt][Cl] [cisplatin],–,IC50 (H1944 cells [1]; 72 hours with drug): 3270 nM; cell cycle status (H1944 cells [3]): strongly induced G2/M-arrest
Nc1ncn([C@H]2C[C@H](O)[C@@H](CO)O2)c(=O)n1 [decitabine],–,"durable, long-term response (393P-KL cells): 2/8"
CCC1=C[C@@H]2CN(C1)Cc1c([nH]c3ccccc13)[C@@](C(=O)OC)(c1cc3c(cc1OC)N(C)[C@H]1[C@@](O)(C(=O)OC)[C@H](OC(C)=O)[C@]4(CC)C=CCN5CC[C@]31[C@@H]54)C2 [vinorelbine],22.2,–
O=C(c1cc(Cc2n[nH]c(=O)c3ccccc23)ccc1F)N1CCN(C(=O)C2CC2)CC1 [olaparib],27700,–
C[C@@H]1COCCN1c1cc(C2([S@](C)(=N)=O)CC2)nc(-c2cc[nH]c3nccc2-3)n1 [ceralasertib],1080,–
COc1cc([C@@H]2c3cc4c(cc3[C@@H](O[C@@H]3O[C@@H]5CO[C@@H](C)O[C@H]5[C@H](O)[C@H]3O)[C@H]3COC(=O)[C@H]23)OCO4)cc(OC)c1O [etoposide],4720,–
COC(=O)Nc1nc2ccc(C(=O)c3cccs3)cc2[nH]1 [nocodazole],60.1,–
